Source: US9663460B2, “Sulfur derivatives as chemokine receptor modulators” (ALLERGAN, INC., priority 2010, dated 2017)

target: CCR2 (Homo sapiens (Human), UniProt P41597); test: Calcium activity assayed on the FLIPR Tetra in HEK-Gqi5 cells stably expressing CCR2; assay type: cell-based; settings: FLIPR Tetra calcium assay
Sequence (P41597 whole entry, species assumed): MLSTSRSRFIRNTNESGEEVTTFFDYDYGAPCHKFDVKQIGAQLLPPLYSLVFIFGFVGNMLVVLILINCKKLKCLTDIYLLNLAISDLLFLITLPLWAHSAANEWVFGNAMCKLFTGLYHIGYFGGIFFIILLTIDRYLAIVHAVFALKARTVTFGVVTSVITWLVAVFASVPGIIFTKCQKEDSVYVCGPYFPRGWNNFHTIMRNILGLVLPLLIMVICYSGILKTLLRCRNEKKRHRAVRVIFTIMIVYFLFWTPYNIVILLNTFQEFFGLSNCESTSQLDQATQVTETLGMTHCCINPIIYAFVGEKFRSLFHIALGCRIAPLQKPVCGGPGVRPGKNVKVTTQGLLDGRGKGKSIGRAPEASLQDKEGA

| Compound | CCR2 % ANTAGONISM [%] | IC50 [nM] |
| --- | --- | --- |
| O=S(=O)(Cc1cccnc1)c1ccc(Cl)cc1NS(=O)(=O)c1cc2ccccc2o1 [N-{5-chloro-2-[(pyridin-3-ylmethyl)sulfonyl]phenyl}-1-benzofuran-2-sulfonamide] | 93 | 32 |
| O=S(=O)(Nc1cc(Cl)ccc1SCc1cccnc1)c1cc2ccccc2o1 [N-{5-chloro-2-[(pyridin-3-ylmethyl)thio]phenyl}-1-benzofuran-2-sulfonamide] | 97 | 22 |
| O=S(=O)(Nc1cc(Cl)ccc1[S+]([O-])Cc1ncccn1)c1cc2ccccc2o1 (stereo not drawn) [N-{5-chloro-2-[(pyrimidin-2-ylmethyl)sulfinyl]phenyl}-1-benzofuran-2-sulfonamide] | 104 | 506 |
| O=S(=O)(Cc1ncccn1)c1ccc(Cl)cc1NS(=O)(=O)c1cc2ccccc2o1 [N-{5-chloro-2-[(pyrimidin-2-ylmethyl)sulfonyl]phenyl}-1-benzofuran-2-sulfonamide] | 104 | 151 |
| O=S(=O)(Nc1cc(Cl)ccc1SCc1ncccn1)c1cc2ccccc2o1 [N-{5-chloro-2-[(pyrimidin-2-ylmethyl)thio]phenyl}-1-benzofuran-2-sulfonamide] | 100 | 549 |
| O=S(=O)(Nc1cc(Cl)ccc1[S+]([O-])C(F)(F)F)c1cc2ccccc2o1 (stereo not drawn) [N-{5-chloro-2-[(trifluoromethyl)sulfinyl]phenyl}-1-benzofuran-2-sulfonamide] | 89 | 19 |
| O=S(=O)(Nc1cc(Cl)ccc1S(=O)(=O)C(F)(F)F)c1cc2ccccc2o1 [N-{5-chloro-2-[(trifluoromethyl)sulfonyl]phenyl}-1-benzofuran-2-sulfonamide] | 91 | 73 |
| O=S(=O)(Nc1cc(Cl)ccc1SC(F)(F)F)c1cc2ccccc2o1 [N-{5-chloro-2-[(trifluoromethyl)thio]phenyl}-1-benzofuran-2-sulfonamide] | 92 | 333 |
| O=[N+]([O-])c1cccc(C[S+]([O-])c2ccc(F)cc2NS(=O)(=O)c2cc3ccccc3o2)c1 (stereo not drawn) [N-{5-fluoro-2-[(3-nitrobenzyl)sulfinyl]phenyl}-1-benzofuran-2-sulfonamide] | 96 | 314 |
| O=[N+]([O-])c1cccc(CS(=O)(=O)c2ccc(F)cc2NS(=O)(=O)c2cc3ccccc3o2)c1 [N-{5-fluoro-2-[(3-nitrobenzyl)sulfonyl]phenyl}-1-benzofuran-2-sulfonamide] | 81 | 693 |
| COc1ccc([S+]([O-])Cc2cccc([N+](=O)[O-])c2)c(NS(=O)(=O)c2cc3ccccc3o2)c1 (stereo not drawn) [N-{5-methoxy-2-[(3-nitrobenzyl)sulfinyl]phenyl}-1-benzofuran-2-sulfonamide] | 84 | 845 |
| CCOC(=O)C[S+]([O-])c1ccc(Cl)cc1NS(=O)(=O)c1ccc(Cl)c(C(F)(F)F)c1 (stereo not drawn) [ethyl {[4-chloro-2-({[4-chloro-3-(trifluoromethyl)phenyl]sulfonyl}amino)phenyl]sulfinyl}acetate] | 79 | 141 |
| COC(=O)CC[S+]([O-])c1ccc(Cl)cc1NS(=O)(=O)c1ccc(Cl)c(C(F)(F)F)c1 (stereo not drawn) [methyl 3-{[4-chloro-2-({[4-chloro-3-(trifluoromethyl)phenyl]sulfonyl}amino)phenyl]sulfinyl}propanoate] | 82 | 108 |
| CC(C)(C)OC(=O)Nc1nc(C[S+]([O-])c2ccc(Cl)cc2NS(=O)(=O)c2cc3ccccc3o2)cs1 (stereo not drawn) [tert-butyl {4-[({2-[(1-benzofuran-2-ylsulfonyl)amino]-4-chlorophenyl}sulfinyl)methyl]-1,3-thiazol-2-yl}carbamate] | 101 | 2400 |
| CC(C)(C)OC(=O)Nc1nc(CS(=O)(=O)c2ccc(Cl)cc2NS(=O)(=O)c2cc3ccccc3o2)cs1 [tert-butyl {4-[({2-[(1-benzofuran-2-ylsulfonyl)amino]-4-chlorophenyl}sulfonyl)methyl]-1,3-thiazol-2-yl}carbamate] | 72 | – |
| CC(C)(C)OC(=O)Nc1cc(CS(=O)(=O)c2ccc(Cl)cc2NS(=O)(=O)c2cc3ccccc3o2)cc[n+]1[O-] [tert-butyl {4-[({2-[(1-benzofuran-2-ylsulfonyl)amino]-4-chlorophenyl}sulfonyl)methyl]-1-oxidopyridin-2-yl}carbamate] | 29 | 2870 |
| CC(C)(C)OC(=O)Nc1cc(CS(=O)(=O)c2ccc(Cl)cc2NS(=O)(=O)c2cc3ccccc3o2)ccn1 [tert-butyl {4-[({2-[(1-benzofuran-2-ylsulfonyl)amino]-4-chlorophenyl}sulfonyl)methyl]pyridin-2-yl}carbamate] | 76 | 2260 |
| CC(C)(C)OC(=O)Nc1nc(CSc2ccc(Cl)cc2NS(=O)(=O)c2cc3ccccc3o2)cs1 [tert-butyl {4-[({2-[(1-benzofuran-2-ylsulfonyl)amino]-4-chlorophenyl}thio)methyl]-1,3-thiazol-2-yl}carbamate] | 28 | 2420 |
| CC(C)(C)OC(=O)Nc1cc(CSc2ccc(Cl)cc2NS(=O)(=O)c2cc3ccccc3o2)ccn1 [tert-butyl {4-[({2-[(1-benzofuran-2-ylsulfonyl)amino]-4-chlorophenyl}thio)methyl]pyridin-2-yl}carbamate] | 40 | 2000 |
| CC(C)(C)OC(=O)Nc1cccc(C[S+]([O-])c2ccc(Cl)cc2NS(=O)(=O)c2cc3ccccc3o2)n1 (stereo not drawn) [tert-butyl {6-[({2-[(1-benzofuran-2-ylsulfonyl)amino]-4-chlorophenyl}sulfinyl)methyl]pyridin-2-yl}carbamate] | 82 | 527 |
